Experimental data taken from article PMC3261798, “Design, Synthesis, and Biological Evaluation of PKD Inhibitors” (Pharmaceutics, 2011).

Legend:
[1] = target: T1, PKD1 (Homo sapiens, UniProt Q15139); assay: % PKD1 activity at 1 μM (single concentration; assay format not stated); format: biochemical; settings: compound at 1 μM
T1 sequence (Q15139 1-912): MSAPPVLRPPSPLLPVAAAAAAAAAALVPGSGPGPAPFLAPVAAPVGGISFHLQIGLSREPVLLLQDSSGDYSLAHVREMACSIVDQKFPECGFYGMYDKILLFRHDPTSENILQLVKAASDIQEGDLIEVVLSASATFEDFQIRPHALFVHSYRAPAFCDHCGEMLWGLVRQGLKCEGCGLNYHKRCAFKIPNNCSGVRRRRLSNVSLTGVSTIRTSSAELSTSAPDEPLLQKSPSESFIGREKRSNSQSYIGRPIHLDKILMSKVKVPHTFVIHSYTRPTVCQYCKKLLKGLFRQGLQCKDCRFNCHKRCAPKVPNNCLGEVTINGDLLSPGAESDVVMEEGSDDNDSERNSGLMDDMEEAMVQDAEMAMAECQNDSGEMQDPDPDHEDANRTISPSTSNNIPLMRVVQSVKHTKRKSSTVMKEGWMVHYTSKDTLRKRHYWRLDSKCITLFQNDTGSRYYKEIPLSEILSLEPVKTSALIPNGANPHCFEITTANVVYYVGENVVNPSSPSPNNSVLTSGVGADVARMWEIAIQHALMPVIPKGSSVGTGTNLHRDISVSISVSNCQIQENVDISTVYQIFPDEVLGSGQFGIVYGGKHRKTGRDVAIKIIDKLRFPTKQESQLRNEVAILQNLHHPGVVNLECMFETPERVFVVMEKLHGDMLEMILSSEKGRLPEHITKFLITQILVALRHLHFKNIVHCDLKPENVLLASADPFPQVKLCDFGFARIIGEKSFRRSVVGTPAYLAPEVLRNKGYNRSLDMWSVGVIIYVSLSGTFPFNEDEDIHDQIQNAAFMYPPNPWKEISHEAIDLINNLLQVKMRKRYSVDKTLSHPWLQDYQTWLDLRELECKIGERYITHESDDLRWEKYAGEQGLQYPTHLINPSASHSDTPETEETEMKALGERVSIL

[2] = target: T1, PKD1; assay: In vitro radiometric PKD kinase activity assay; format: biochemical; parameters: purchased Biomol International; settings: mean ± SEM, n = number of independent experiments; for IC50: read-out: IC50 Radiometric PKD1
Method: In vitro radiometric PKD kinase assays were conducted as previously described. Briefly, 50 ng recombinant human PKD1 (Biomol International, Plymouth Meeting, PA, USA) was incubated at 30 °C for 10 min with a reaction mixture containing 2.5 μg syntide-2 (Sigma), 70 μM ATP, and 1 μCi γ-^32 P-ATP (PerkinElmer, Boston, MA, USA) in kinase buffer (50 mM Tris-HCl pH 7.5, […], and 10 mM […]). 25 μL of the reaction mixture was then spotted on Whatman P81 filter paper (Whatman Inc., Clifton, NJ, USA), and filter papers were washed three times with 0.5% phosphoric acid, dried, then counted using a Beckman LS6500 multi-purpose scintillation counter.

[3] = target: T1, PKD1; assay: IMAP-based PKD Fluorescence Polarization (FP) assay, automated HTS format; format: biochemical; settings: mean ± SEM, n = number of independent experiments
Method: An automated, HTS formatted IMAP-based PKD Fluorescence Polarization (FP) assay was used to assess the specificity of the PKD analogs as previously described. […] Kinase reactions were incubated for 90 min at room temperature and stopped by the addition of IMAP binding reagent. Assay plates were then incubated for 2 h and IMAP-based FP data were captured on a Molecular Devices Spectra-Max M5 (Sunnyvale, CA, USA).

Row | Compound | melting point | remaining activity at 1 µM [1] [%] | IC50 Radiometric PKD1 [2] | IC50 [3] [nM] | IC50 [2] [nM]
1 | COc1ccc2sc3c(c2c1)[S+]([O-])CCNC3=O (centres unmarked) [kb-NB184-45, 3,4-Dihydro-9-methoxy-1-oxide-[1]benzothieno[2,3-f]-1,4-thiazepin-5(2H)-one] | 215 to 217 °C | 97 ± 16 |  |  | 
2 | COC(=O)c1sc2ccc(OC)cc2c1NCCCO [kb-NB184-80, Methyl 3-(3-hydroxypropylamino)-5-methoxybenzo[b]thiophene-2-carboxylate] | 116 to 120 °C | 91.3 ± 1.5 | not inhibitory |  | 
3 | O=C1NCCc2c1oc1ccc(O)cc21 [kb-NB123-23A, 6-Hydroxy-3,4-dihydrobenzoxolo[2,3-c]pyridin-1(2H)-one] | 265 to 268 °C |  |  | 12600 ± 1300 | 1410
4 | COc1ccc2sc3c(c2c1)OCCCNC3=O [kb-NB184-57, 2,3,4,5-Tetrahydro-10-methoxybenzo[b]thieno[2,3-f]-1,5-oxazocin-6-one] | 233 to 237 °C | 62 ± 3.5 |  |  | 
5 | O=C1NCCSc2c1sc1ccc(O)c(Br)c21 [kb-NB184-52, 3,4-Dihydro-9-hydroxy-10-bromo-[1]benzothieno[2,3-f]-1,4-thiazepin-5(2H)-one] | 235 to 238 °C (dec.) | 12.7 ± 0.2 |  |  | 48
6 | O=C1NCCCc2c1oc1ccc(O)c(F)c21 [kb-NB96-21, 6-Fluoro-7-hydroxy-2,3,4,5-tetrahydro-[1]benzoxolo[2,3-c]azepin-1-one] | > 300 °C |  |  | 1300 ± 50 | 240
7 | O=C1NCCC(O)c2c1oc1ccc(O)cc21 (centres unmarked) [kb-NB123-89, 5,7-Dihydroxy-2,3,4,5-tetrahydro-[1]benzoxolo[2,3-c]azepin-1-one] | 280 to 282 °C |  |  | 24100 ± 710 | 1230 ± 210
8 | O=C1NCCCOc2c1sc1ccc(OCc3ccccc3)cc21 [kb-NB184-36, 2,3,4,5-Tetrahydro-10-benzyloxybenzo[b]thieno[2,3-f]-1,5-oxazocin-6-one] | 195 to 200 °C | 83.3 ± 3.8 |  |  | 
9 | Nc1ccc2sc3c(c2c1)SCCNC3=O [mcf292-03, 3,4-Dihydro-9-amino-[1]benzothieno[2,3-f]-1,4-thiazepin-5(2H)-one] | 198.6 to 199 °C | 74.4 ± 1.1 |  |  | 3170
10 | O=C1NCCSc2c1[s+]([O-])c1ccc(O)cc21 (centres unmarked) [kb-NB184-22, 3,4-Dihydro-9-hydroxy-6-oxide-[1]benzothieno[2,3-f]-1,4-thiazepin-5(2H)-one] | 160 to 163 °C (dec.) | 66.5 ± 6.1 |  |  | 
11 | O=C1NCCSc2c1sc1c(OCc3ccccc3)cccc21 [kb-NB184-38, 3,4-Dihydro-7-benzyloxy-[1]benzothieno[2,3-f]-1,4-thiazepin-5(2H)-one] | 213 to 215 °C | 98.6 ± 4.1 |  |  | 
12 | COc1ccc2c(c1)c1c([s+]2[O-])C(=O)NCCS1 (centres unmarked) [kb-NB184-25, 3,4-Dihydro-9-methoxy-6-oxide-[1]benzothieno[2,3-f]-1,4-thiazepin-5(2H)-one] | 284 to 287 °C | 50.4 ± 2.3 |  |  | 1080
13 | O=C1NCCSc2c1sc1c(O)cccc21 [kb-NB184-40, 3,4-Dihydro-7-hydroxy-[1]benzothieno[2,3-f]-1,4-thiazepin-5(2H)-one] | 269 to 272 °C (dec.) | 99 ± 11 |  |  | 

The remaining lines, values ahead:

Row | melting point | remaining activity at 1 µM [1] [%] | IC50 Radiometric PKD1 [2] | IC50 [3] [nM] | IC50 [2] [nM] | Compound
14 | > 300 °C |  |  | 1400 ± 100 | 890 | O=C1NCCCc2c1oc1ccc(O)c(Cl)c21 [kb-NB77-88, 6-Chloro-7-hydroxy-2,3,4,5-tetrahydro-[1]benzoxolo[2,3-c]azepin-1-one]
15 | 255 to 257 °C |  |  | 2400 ± 300 | 1580 | C=CCc1c(O)ccc2oc3c(c12)CCCNC3=O [kb-NB96-02, 6-Allyl-7-hydroxy-2,3,4,5-tetrahydro-[1]benzoxolo[2,3-c]azepin-1-one]
16 | 144 to 145 °C | 78.3 |  |  | 39600 | c1ccc(COc2ccc3sc4c(c3c2)SCCNC4)cc1 [kb-NB165-81, 2,3,4,5-Tetrahydro-9-benzyloxy-[1]benzothieno[2,3-f]-1,4-thiazepine]
17 | 280 to 282 °C |  |  | 74400 ± 2200 | 15700 ± 190 | Nc1ccc2[nH]c3c(c2c1)CCNC3=O [kb-NB142-08, 6-Amino-2,3,4,9-tetrahydro-1H-pyrido[3,4-b]indol-1-one]
18 | 198 to 200 °C |  |  | 2600 ± 200 | 1230 | C=CCOc1ccc2oc3c(c2c1)CCCNC3=O [kb-NB77-84, 7-Allyloxy-2,3,4,5-tetrahydro-[1]benzoxolo[2,3-c]azepin-1-one]
19 | 220 to 224 °C | 77.5 ± 3.6 |  |  |  | COc1cccc2c3c(sc12)C(=O)NCCS3 [kb-NB184-44, 3,4-Dihydro-7-methoxy-[1]benzothieno[2,3-f]-1,4-thiazepin-5(2H)-one]
20 | > 300 °C |  |  | 14900 ± 1200 | 850 ± 110 | O=C1NCCC(=O)c2c1oc1ccc(O)cc21 [kb-NB123-63, 7-Hydroxy-3,4-dihydro-[1]benzoxolo[2,3-c]azepine-1,5(2H)-dione]
21 | 244 to 247 °C |  |  | 19400 ± 1400 | 1570 ± 200 | O=C1NCCc2c1[nH]c1ccc(O)cc21 [kb-NB123-59, 2,3,4,9-Tetrahydro-6-hydroxy-1H-pyrido[3,4-b]indol-1-one]
22 | 250 to 254 °C | 55.6 |  |  | 757 | NCCN1CCSc2c(sc3ccc(O)cc23)C1=O [kb-NB165-75, 2,3-Dihydro-4-(2-aminoethyl)-9-hydroxy-[1]benzothieno[2,3-f]-1,4-thiazepin-5(2H)-one]
23 | 185 to 188 °C | 29.5 |  |  | 190 ± 30 | COc1ccc2sc3c(c2c1)SCCCNC3=O [kb-NB184-02, 2,3,4,5-Tetrahydro-10-methoxybenzo[b]thieno[2,3-f]-1,5-thiazocin-6-one]
24 | 182 to 184 °C (dec.) | 92.4 |  |  | 16400 | Oc1ccc2sc3c(c2c1)SCCNC3 [kb-NB165-83, 2,3,4,5-Tetrahydro-9-hydroxy-[1]benzothieno[2,3-f]-1,4-thiazepine]
25 | 234 to 236 °C |  |  | 21700 ± 520 | 1130 | O=C1NCCC(=NNc2ccccc2)c2c1oc1ccc(O)cc21 [kb-NB142-05, 7-Hydroxy-5-(2-phenylhydrazono)-2,3,4,5-tetrahydro-[1]benzoxolo[2,3-c]azepin-1-one]
26 | 198 to 199 °C | 84.3 |  |  | 21700 | O=C1NCCCSc2c1sc1ccc(OCc3ccccc3)cc21 [kb-NB165-89, 2,3,4,5-Tetrahydro-10-benzyloxybenzo[b]thieno[2,3-f]-1,5-thiazocin-6-one]
